These results are taken from patent EP0449699A2, “Pyrazole derivatives as angiotensin II-receptor antagonists, process for their preparation and pharmaceutical compositions containing them” (LABORATOIRES UPSA, priority 1990, dated 1991).

In this assay the test system is récepteurs surrénaliens de l'angiotensine II. Put plainly: Displacement of radioligand [125I]-SIAII specifically bound to adrenal angiotensin II receptors (rat adrenal homogenate). The format is binding. Particulars: 60 min, 25°C. From the text:
L'affinité des produits des exemples pour les récepteurs de l'angiotensine II est évaluée par technique de déplacement d'un radioligand spécifiquement fixé sur les récepteurs surrénaliens de l'angiotensine Il, chez le rat.
Une aliquote d'un homogénat de surrénales de rat incube en présence d'une concentration unique de [^125I]-SIAII (Sar^1, Tyr^4, Ile^8 - angiotensine II), antagoniste des récepteurs de l'angiotensine II, et de deux concentrations d'agents compétiteurs (10^-5 M, 10-^7 M) durant 60 min à 25°C.
La réaction est achevée par ajout de tampon, puis rapide filtration à travers des filtres de papier de verre. La liaison non spécifique est déterminée en présence d'angiotensine Il.
Les résultats sont exprimés, pour les concentrations testées, en pourcentage de déplacement du radioligand spécifiquement fixé sur les récepteurs surrénaliens de l'angiotensine Il.

For the molecule `CCCc1nn(CC(F)(F)F)c(OCC(=O)OC)c1Cc1ccc(NC(=O)c2ccccc2C(=O)O)cc1` [Exemple 33, [(trifluoro-2,2,2 éthyl)-1 n-propyl-3 ((carboxy-2 benzoyl amino)-4 benzyl)-4 pyrazol-yl-5] oxyacétatede méthyle], the “% de déplacement du ligand marqué” value is, setting by setting: (competitor 1E-5 M, 10 µM) 94%; (competitor 1E-7 M, 0.1 µM) 26%.

`CCCc1nn(C)c(OCC(=O)OCC)c1Cc1ccc(NC(=O)c2c(Cl)ccc(Cl)c2C(=O)O)cc1` [Exemple 30, [Méthyl-1 n-propyl-3 ((carboxy-2 dichloro-3,6-benzoyl amino)-4 benzyl)-4 pyrazol-yl-5] oxyacétate d'éthyle]: the “% de déplacement du ligand marqué” value (competitor 1E-5 M, 10 µM) is 96% and the “% de déplacement du ligand marqué” value (competitor 1E-7 M, 0.1 µM) came out at 63%.

For the molecule `CCCc1nn(C)c(OC(=O)N(C)C)c1Cc1ccc(NC(=O)c2ccccc2S(=O)(=O)O)cc1` [Exemple 54, Acide [[Méthyl-1 n-propyl-3 (N,N-diméthyl carbamoyl)oxy-5 pyrazol-yl-4]méthylphényl-yl-4] aminocarbonyl-2 benzène sulfonique], the “% de déplacement du ligand marqué” value turned out to be 77% (competitor 1E-5 M, 10 µM) and 62% (competitor 1E-7 M, 0.1 µM).

On to `CCCc1nn(CC(F)(F)F)c(OC(=O)N(C)C)c1Cc1ccc(NC(=O)c2ccccc2S(=O)(=O)O)cc1` [Exemple 60, Acide [[(trifluoro-2,2,2 éthyl)-1 n-Propyl-3 (N,N-diméthyl carbamoyl)oxy-5 pyrazol-yl-4]méthylphényl-yl-4] amino carbonyl-2 benzène sulfonique], for which the “% de déplacement du ligand marqué” value (competitor 1E-5 M, 10 µM) is listed as 84% and the “% de déplacement du ligand marqué” value (competitor 1E-7 M, 0.1 µM) is 49%.

`CCCCc1nn(CC(F)(F)F)c(COC)c1Cc1ccc(-c2ccccc2-c2nnn[nH]2)cc1` [Exemple 119, (Trifluoro-2,2,2 éthyl)-1 n-butyl-3 [(tétrazolyl-5)-2' biphényl-yl-4] méthyl-4 méthoxy méthyl-5 pyrazole]: the “% de déplacement du ligand marqué” value came to 70% (competitor 1E-5 M, 10 µM) and 54% (competitor 1E-7 M, 0.1 µM).

As to `CCCc1nn(C)c(OCC(=O)N2CCN(c3ccccc3OC)CC2)c1Cc1ccc(NC(=O)c2ccccc2S(=O)(=O)O)cc1` [Exemple 66, (Méthoxy-2 phényl)-1 [[méthyl-1 n-propyl-3 [(sulfo-2 benzoyl amino)-4 benzyl]-4 pyrazol-yl-5]oxyacétyl]-4 pipérazine], the “% de déplacement du ligand marqué” value came out at 92% (competitor 1E-5 M, 10 µM) and 63% (competitor 1E-7 M, 0.1 µM).

As to `CCCc1nn(C)c(OCCO)c1Cc1ccc(-c2ccccc2-c2nn[nH]n2)cc1` [Exemple 88, [Méthyl-1 n-Propyl-3 [(tétrazolyl-5)-2'biphényl-yl-4]méthyl-4 pyrazol-yl-5]oxy-2 éthanol], the “% de déplacement du ligand marqué” value is recorded as 60% (competitor 1E-5 M, 10 µM) and 38% (competitor 1E-7 M, 0.1 µM).

`CCCCc1nn(C)c(OCC(=O)N2CCOCC2)c1Cc1ccc(NC(=O)c2ccccc2S(=O)(=O)O)cc1` [Exemple 48, N-[[Méthyl-1 n-butyl-3 [(sulfo-2 benzoyl amino)-4 benzyl]-4 pyrazol-yl-5]oxyacétyl] morpholine]: the “% de déplacement du ligand marqué” value reads like this: (competitor 1E-5 M, 10 µM) 80%; (competitor 1E-7 M, 0.1 µM) 58%.

Take `CCCCc1nn(C)c(O)c1Cc1ccc(-c2ccccc2C(=O)O)cc1` [Exemple 36, Acide [Méthyl-1 n-butyl-3 hydroxy-5 pyrazol-yl-4] méthyl-4' biphényl-2 carboxylique]: the “% de déplacement du ligand marqué” value runs as follows: (competitor 1E-5 M, 10 µM) 62%; (competitor 1E-7 M, 0.1 µM) 10%.

On to `CCCc1nn(CC(F)(F)F)c(O)c1Cc1ccc(-c2ccccc2-c2nnn[nH]2)cc1` [Exemple 74, (Trifluoro-2,2,2 éthyl)-1 n-Propyl-3 hydroxy-5 [(tétrazolyl-5)-2' biphényl-yl-4] méthyl-4 pyrazole], for which the “% de déplacement du ligand marqué” value reads like this: (competitor 1E-5 M, 10 µM) 66%; (competitor 1E-7 M, 0.1 µM) 58%.
